In one series the test system is Dengue-2. The series can be described thus: Dengue-2 infection of Vero cells, Intracellular FACS Assay. The settings on record: 20 μM; propidium iodide staining; Vero cells 3 days post-infection. The format is cell-based. Here is the method: Intracellular FACS Assay: Vero cells were seeded for 24 h pre-infection in 6-well plates. Cells were exposed to Dengue-2 in the presence of increasing concentrations of peptide (or DMSO as control). Viruses and peptide were washed away 2 h post-infection. Cells were taken for intracellular staining 3 days post-infection. Cells were stained with appropriate isotype control, Dengue Env, Dengue capsid or tubulin antibodies. Cells were analyzed by FACS.

In another series the test system is HCV. Briefly: Median effective concentration (EC50) by intracellular HCV RNA RT-QPCR. The format is cell-based, Hepatitis C virus (JFH-1). The settings on record: FIG. 12B-C; Huh-7.5.1 cells, MOI 0.1; 3 days; read-out: EC50 of the L- and D-forms of peptide 1. Here is the method:
(§1) To determine the median effective concentration (EC50) of peptide #1, peptide stock solution (3.6 mM in DMSO) was serially 2-fold diluted in DMSO. An aliquot of peptide from each dilution was then diluted 1:100 in complete growth medium and mixed with equal volume of virus supernatant. The virus-peptide mixture was then used to infect Huh-7.5.1 cells (MOI=0.1). After adsorption for 4 hours at 37° C., the virus-peptide inoculum was removed. The cells were washed 2 times, overlaid with 120 μL fresh growth medium and incubated at 37° C. for 3 days. Cells were lysed and subjected to RNA analysis. The HCV RNA transcript level was measured by real time RT-QPCR and normalized to cellular GAPDH levels. The inhibition of HCV infection was calculated by comparing the intracellular HCV RNA transcript between the peptide treatment and solvent control.
as §1, with “(EC50) of the L- and D-form” for “(EC50)”, “serially diluted” for “serially”, “2-fold” for “2-fold diluted”

The next series in a line: MTT cytotoxicity assay. It counts as cell-based. The settings on record: human, hepatocyte cell lines, read-out: LD50 (MTT cytotoxicity). The method, then:
Peptide cytotoxicity was measured by MTT cytotoxicity assay based on the protocol provided in the ATCC MTT assay kit (Cat #30-1010K). In brief, 5000-10,000 cells were seeded per well in a 96 well plate. Following overnight growth, 100 μL fresh medium plus 20 μL of 2-fold serially diluted peptide was added. Media without peptides was added to at least 3 wells as untreated controls. The cells were then incubated for 72 hours at 37° C., 5% CO2. After this incubation, 1/10 volume of MTT solution ([…] in PBS) was added to each well, and the cells were returned to the incubator. Two hours later, the medium was removed, 150 μL DMSO was added to dissolve the purple precipitate formazan, and the plate was shaken at 150 rpm for 10 minutes. Absorbance at 570 nm less background at 670 nm is a reliable measure of […]. Cytotoxicity (LD50) of individual peptides was defined as the peptide concentration that caused 50% cell death.
For orientation: Tetrazolium assays rely on reduction of a dye to a coloured formazan, in cell work by metabolically active cells.

Series [1] in a line: Serum stability of L- and D-type peptides (10% FBS, 37° C., antiviral readout). The format is in vitro ADME. An excerpt: Peptides composed of L-amino acids are susceptible to proteolysis, which could shorten their half-life and, thus, their biological activity. To examine this possibility and to determine if specific peptide-viral protein interactions mediate antiviral activity, peptide 1 was synthesized using all D-amino acids, purified to >95% homogeneity, and its antiviral activity and serum stability were compared with a similarly pure preparation of the L-type version of peptide #1. Both L- and D-type peptides were diluted 1:100 in complete growth medium (10% FBS) and mixed with an equal volume of viral supernatant.
In addition, to compare the serum stability of the L- and D-type peptides, the diluted peptide was incubated at 37° C. for 1 hour, 2 hours and 4 hours before mixing with viral supernatant. The virus-peptide mixture was then used to infect Huh-7.5.1 cells (MOI=0.1). After adsorption for 4 hours at 37° C., the virus-peptide inoculum was removed. The cells were washed 2 times, overlaid with 120 μL fresh growth medium and incubated at 37° C. for 3 days. Cells were lysed and subjected to RNA analysis. The HCV RNA transcript level was measured by real time RT-QPCR and normalized to cellular GAPDH levels. […] Thus, in addition to low immunogenicity and possible oral bioavailability, peptides composed of D-amino acids have the potential therapeutic advantage of enhanced serum stability.

Read-outs that look alike come from different tables or passages of the source.

With `CC[C@@H](C)[C@@H](NC(=O)[C@@H](CC(=O)O)NC(=O)[C@@H](CCCNC(=N)N)NC(=O)[C@@H](CC(C)C)NC(=O)[C@@H](Cc1c[nH]c2ccccc12)NC(=O)[C@H](N)CO)C(=O)N[C@H](Cc1c[nH]c2ccccc12)C(=O)N[C@H](CC(=O)O)C(=O)N[C@H](Cc1c[nH]c2ccccc12)C(=O)N[C@@H](C(=O)N[C@H](CS)C(=O)N[C@H](CCC(=O)O)C(=O)N[C@@H](C(=O)N[C@H](CC(C)C)C(=O)N[C@H](CO)C(=O)N[C@H](CC(=O)O)C(=O)N[C@H](Cc1ccccc1)C(=O)N[C@H](CCCCN)C(=O)O)C(C)C)[C@H](C)CC` [D-2022 peptide], in the series with Dengue-2, the “% of Dead cells PI” value turned out to be 3.83%. In addition, the EC50 in the series with HCV was approximately 1 µM. Also, the CC50 at 72 h in “MTT cytotoxicity assay” (with FBS) worked out at 36.8 µM; in the series “MTT cytotoxicity assay” (without FBS), 3.7 µM. In addition, the “Time entirely stable in 10% FBS at 37° C.” value in series [1] was “at least 4 hours”.

Usually EC50 stands for the concentration that produces a half-maximal response.
